Tested on: human Factor 11 mRNA
Assay: Dose-dependent inhibition of human Factor 11 in HepB3 cells, electroporation (Example 7)
Type: cell-based
Conditions: for percent inhibition of human Factor 11 mRNA relative to untreated control cells: ~16 hours
Protocol: The gapmers were also transfected via electroporation and their dose dependent inhibition of human Factor 11 mRNA was measured. Cells were plated at a density of 20,000 cells per well and transfected via electroporation with 41.15 nM, 123.457 nM, 370.37 nM, 1111.11 nM, 3333.33 nM, and 10,000 nM concentrations of antisense oligonucleotide, as specified in Table 15. After a treatment period of approximately 16 hours, RNA was isolated from the cells and human Factor 11 mRNA levels were measured by quantitative real-time PCR. Human Factor 11 primer probe set RTS 2966 was used to measure mRNA levels. Factor 11 mRNA levels were adjusted according to total RNA content, as measured by RIBOGREEN. Results are presented as percent inhibition of human Factor 11, relative to untreated control cells.

Row | Substance | IC50 [nM] | percent inhibition of human Factor 11 mRNA relative to untreated control cells (41.15 nM) [%] | percent inhibition of human Factor 11 mRNA relative to untreated control cells (123.457 nM) [%] | percent inhibition of human Factor 11 mRNA relative to untreated control cells (370.37 nM) [%] | percent inhibition of human Factor 11 mRNA relative to untreated control cells (1111.11 nM) [%] | percent inhibition of human Factor 11 mRNA relative to untreated control cells (3333.33 nM) [%] | percent inhibition of human Factor 11 mRNA relative to untreated control cells (10000 nM) [%]
1 | 416825 (antisense GCCCTTCATGTCTAGGTCCA; 5-10-5 gapmer, further chemistry not given here) [compound 416825] | 160 | 32 | 40 | 48 | 75 | 90 | 92
2 | 416826 (antisense ATGCCCTTCATGTCTAGGTC; 5-10-5 gapmer, further chemistry not given here) [compound 416826] | 780 | 0 | 0 | 34 | 61 | 87 | 92
3 | 416838 (antisense GCAACCGGGATGATGAGTGC; 5-10-5 gapmer, further chemistry not given here) [compound 416838] | 1200 | 12 | 9 | 28 | 40 | 77 | 88

Reference: patent US20230263822A1, “MODULATION OF FACTOR 11 EXPRESSION” (Ionis Pharmaceuticals, Inc., priority 2008, published 2023)
